According to patent publication US12064516B2, “Pharmaceutical formulations and uses thereof” (Aldeyra Therapeutics, Inc., priority 2020, dated 2024):
Read-outs that look alike come from different tables or passages of the source.

Experiment: Pharmacokinetics of compound I-1 in the dog by intravenous, oral gavage and oral capsule routes
Type: in vivo, beagle dogs
Settings: male, beagle, dog, plasma; for concentration at 4 h / concentration at 8 h / concentration at 12 h / concentration at 0.25 h / concentration at 0.5 h / concentration at 1 h / concentration at 2 h: read-out: Concentration at time point; for bioavailability: read-out: BioA (bioavailability)
Description: A pharmacokinetic study was conducted to compare the bioavailability of capsule and suspension oral formulations vs. an intravenous formulations.
The standard curve was prepared from 1 to 2,000 ng/mL. QC samples were prepared at […]. Dilution QCs were prepared at 10-fold dilution. Deuterated (d6) I-1 (compound 1-7) was used as an internal standard. A 50 μL aliquot of sample was added to 150 μL of cold internal standard in acetonitrile to effect protein precipitation. The resulting supernatants were analyzed by LCMS. Diluted sample data was utilized only for over-the-curve results.
Briefly, 9 male non-naïve beagle dogs were assigned in groups of 3 to 3 dose groups. Group 1 was dosed 3 mg/kg by the intravenous route in a vehicle of 20% sulfobutylether-β-cyclodextrin (SBECD). Group 2 was dosed 10 mg/kg by the oral gavage route in a vehicle of 0.5% methylcellulose (MC). Group 3 was dosed with 100 mg capsules.
The I-1 100 mg capsules are manufactured as a non-sterile spray dried, granulated powder blend. The blend is then filled into capsules for oral delivery. The capsules are packaged in high-density polyethylene bottles. The quantitative composition of the I-1 100 mg capsule is presented above in Table B.
Procedure: (PO) gavage: formulations will be administered via a rubber oral gavage tube followed by a 10 mL flush with drinking water. (PO) tablet: tablets will be administered orally by placing the tablet in the back of the throat followed by a 10 mL flush with water.
Frequency: Pre-dose, 5, 15, 30 min, 1, 2, 4, 8, and 12 hrs post-dose (IV); pre-dose, 15, 30 min, 1, 2, 4, 8, and 12 hrs post-dose (PO by gavage and PO by capsule).
Blood collection: each blood sample will be collected from the dog's jugular vein or other accessible vein via direct venepuncture, placed into a pre-labeled tube containing K2EDTA and kept on ice until centrifugation.
Plasma preparation and storage: Certifuged at 4 C at 3,000× for 5 mm. Stored in a freezer until analysed.
Pharmacokinetics package PKSolver2.0™ has been validated against WinNonLin™ as a tool for non-GLP studies and was used to process the pharmacokinetic data.
For each route, the average data were processed with non-compartmental, one compartment, and two compartment models. The models were assessed for goodness of fit and the accuracy of the model to assess the biphasic data, with either a) no weighting, b) 1/concentration observed, or c) 1/concentration observed squared. 1/concentration predicted, and 1/concentration predicted squared weightings were also assessed for best fit. […] The zeros were averaged with the 71.5 value for a resulting average of 23.8. For the In Group 2 (PO Gavage) subject 3 experienced 30 mL of emesis, so the dose assigned to that subject was 7.46. In all cases, the subjects were modelled individually, and the individual PK parameters were averaged to provide final parameters.
For group 1 (intravenous) the final model selected was a two compartment model with 1/concentration observed squared weighting.
For group 2 (oral gavage) the final model was a two compartment extravascular model with 1/concentration predicted squared weighting.
For group 3 (oral capsule) the final model was a one compartment extravascular model with a lag time and no weighting. […] The body weight of each animal was used to assign a mg/kg dose to each individual. Subject 1 was dosed at 7.69 mg/kg. Subject 2 was 6.94 mg/kg, and Subject 3 was 6.99 mg/kg.

[1] = oral, 7 mg/kg, Group 3: PO Capsule 7 mg/kg, Subject 1
[2] = oral, 7 mg/kg, Group 3: PO Capsule 7 mg/kg, Subject 2
[3] = oral, 7 mg/kg, Group 3: PO Capsule 7 mg/kg, Subject 3
[4] = oral, 7 mg/kg, Group 3: PO Capsule 7 mg/kg, Average
[5] = oral, 7.2 mg/kg, 100 mg Capsule, average dose 7.2 mg/kg, Average
[6] = po, 7.2 mg/kg, 100 mg Capsule, average dose 7.2 mg/kg, Average
[7] = po, 7.2 mg/kg, 100 mg Capsule, average dose 7.2 mg/kg, Subj1
[8] = po, 7.2 mg/kg, 100 mg Capsule, average dose 7.2 mg/kg, Subj2
[9] = po, 7.2 mg/kg, 100 mg Capsule, average dose 7.2 mg/kg, Subj3
[10] = po, 10 mg/kg, Group 2: PO Gavage 10 mg/kg, Average
[11] = po, 10 mg/kg, Group 2: PO Gavage 10 mg/kg, Subject 1
[12] = po, 10 mg/kg, Group 2: PO Gavage 10 mg/kg, Subject 2
[13] = po, 10 mg/kg, Group 2: PO Gavage 10 mg/kg, Subject 3
[14] = po, 10 mg/kg, Oral Gavage 0.5% Methylcellulose 10 mg/kg, Average
[15] = po, 10 mg/kg, Oral Gavage 0.5% Methylcellulose 10 mg/kg, Subj1
[16] = po, 10 mg/kg, Oral Gavage 0.5% Methylcellulose 10 mg/kg, Subj2
[17] = po, 10 mg/kg, Oral Gavage 0.5% Methylcellulose 10 mg/kg, Subj3

Compound CC(C)(O)c1nc2ccccc2cc1N [I-1] has a concentration at 4 h [1] of 1070 ng/mL, a concentration at 4 h [2] of 736 ng/mL and a concentration at 4 h [3] of 1150 ng/mL. For the same compound, the concentration at 8 h [4] was 223 ng/mL, the concentration at 8 h [1] was 195 ng/mL and the concentration at 8 h [2] was 147 ng/mL. For the same compound, the concentration at 8 h [3] was 327 ng/mL, the concentration at 12 h [4] was 94.5 ng/mL and the concentration at 12 h [1] was 58.7 ng/mL. For the same compound, the concentration at 12 h [2] was 58 ng/mL, the concentration at 12 h [3] was 167 ng/mL and the Tmax [5] was 2.37 h. It also gave a bioavailability [5] of 83%, a concentration at 0.25 h (oral, 100 mg, Group 3: PO Capsule 7 mg/kg, Average) of 23.8 ng/mL and a concentration at 0.25 h (oral, 100 mg, Group 3: PO Capsule 7 mg/kg, Subject 2) of 71.5 ng/mL. The AUC(0-inf) [6] was 8170 ng·h/mL, the AUC(0-t) [6] was 8080 ng·h/mL and the Cmax [6] was 1700 ng/mL. For the same compound, the half-life [6] was 1.33 h, the AUC(0-inf) [7] was 7350 ng·h/mL and the AUC(0-t) [7] was 7240 ng·h/mL. The Cmax [7] was 1390 ng/mL, the Tmax [7] was 2.57 h and the half-life [7] was 1.38 h. It also gave an AUC(0-inf) [8] of 5610 ng·h/mL, an AUC(0-t) [8] of 5490 ng·h/mL and a Cmax [8] of 986 ng/mL. The Tmax [8] was 2.37 h, the half-life [8] was 1.49 h and the AUC(0-inf) [9] was 11600 ng·h/mL. It also gave an AUC(0-t) [9] of 11500 ng·h/mL, a Cmax [9] of 2730 ng/mL and a Tmax [9] of 2.16 h. It also gave a half-life [9] of 1.1 h, a concentration at 0.25 h [10] of 2480 ng/mL and a concentration at 0.25 h [11] of 3360 ng/mL. The concentration at 0.25 h [12] was 2760 ng/mL, the concentration at 0.25 h [13] was 1310 ng/mL and the concentration at 0.5 h [10] was 4320 ng/mL. The concentration at 0.5 h [11] was 5400 ng/mL, the concentration at 0.5 h [12] was 4290 ng/mL and the concentration at 0.5 h [13] was 3260 ng/mL. The concentration at 1 h [10] was 2700 ng/mL, the concentration at 1 h [11] was 2970 ng/mL and the concentration at 1 h [12] was 2610 ng/mL. For the same compound, the concentration at 1 h [13] was 2520 ng/mL, the concentration at 2 h [10] was 1420 ng/mL and the concentration at 2 h [11] was 1890 ng/mL. It also gave a concentration at 2 h [12] of 1470 ng/mL, a concentration at 2 h [13] of 908 ng/mL and a concentration at 4 h [10] of 787 ng/mL. For the same compound, the concentration at 4 h [11] was 909 ng/mL, the concentration at 4 h [12] was 909 ng/mL and the concentration at 4 h [13] was 541 ng/mL. It also gave a concentration at 8 h [10] of 157 ng/mL, a concentration at 8 h [11] of 131 ng/mL and a concentration at 8 h [12] of 233 ng/mL. It also gave a concentration at 8 h [13] of 108 ng/mL, a concentration at 12 h [10] of 45.1 ng/mL and a concentration at 12 h [11] of 28.1 ng/mL. The concentration at 12 h [12] was 59.1 ng/mL, the concentration at 12 h [13] was 48.1 ng/mL and the AUC(0-inf) [14] was 9550 ng·h/mL. The AUC(0-t) [14] was 9360 ng·h/mL, the Cmax [14] was 3560 ng/mL and the Tmax [14] was 0.518 h. The half-life [14] was 3.02 h, the bioavailability [14] was 75% and the AUC(0-inf) [15] was 11200 ng·h/mL. For the same compound, the AUC(0-t) [15] was 11100 ng·h/mL, the Cmax [15] was 4350 ng/mL and the Tmax [15] was 0.459 h. It also gave a half-life [15] of 2.85 h, an AUC(0-inf) [16] of 10100 ng·h/mL and an AUC(0-t) [16] of 9910 ng·h/mL. It also gave a Cmax [16] of 3670 ng/mL, a Tmax [16] of 0.46 h and a half-life [16] of 2.13 h. For the same compound, the AUC(0-inf) [17] was 7330 ng·h/mL, the AUC(0-t) [17] was 7050 ng·h/mL and the Cmax [17] was 2650 ng/mL. For the same compound, the Tmax [17] was 0.635 h and the half-life [17] was 4.08 h.
